In assay [1] the test system is Candida albicans (TISTR 5779). Nature of the assay: MIC/MFC by micro-dilution method. As to conditions: for MFC / MIC: Candida albicans, TISTR5779. On the technique in general: Dilution methods test growth across graded concentrations, often in twofold steps.
For another assay, the system named is Trichophyton rubrum. Nature of the assay: MIC/MFC by micro-dilution method. As to conditions: for MFC / MIC: Trichophyton rubrum.
Assay [2] relates to Trichophyton mentagrophytes. Nature of the assay: MIC/MFC by micro-dilution method. As to conditions: for MFC / MIC: Trichophyton mentagrophytes.
Assay [3] concerns the target tyrosinase. The settings on record: previous study, read-out: IC50, anti-tyrosinase activity, cited from earlier work.
The subject of assay [4] is Staphylococcus aureus (ATTC 25923). Nature of the assay: MIC/MBC by micro-dilution method.
Assay [5] has as its system Escherichia coli ATCC35218. Nature of the assay: MIC/MBC by micro-dilution method.
The test system of assay [6] is Staphylococcus epidermidis (TISTR 517). The assay can be described thus: MIC/MBC by micro-dilution method. As to conditions: TISTR517.
Assay [7] concerns Pseudomonas aeruginosa ATCC10145. The assay can be described thus: MIC/MBC by micro-dilution method.
In another assay the test system is Microsporum gypseum. Nature of the assay: MIC/MFC by micro-dilution method. The settings on record: for MFC / MIC: Nannizzia gypsea.
In assay [8] the test system is Propionibacterium acnes (DMST 14916). Nature of the assay: MIC/MBC by micro-dilution method. The settings on record: Cutibacterium acnes.
The test system of assay [9] is tyrosinase. As to conditions: cited from earlier work.
Assay [10] concerns P. aeruginosa, Klebsiella pneumoniae, E. coli, Salmonella typhimurium, and S. aureus. As to conditions: at a concentration of 315 ± 0.04 µg/mL; cited from earlier work.
Assay [11] concerns A. fumigatus, A. flavus, A. niger, and tested Chrysosporium species. On the set-up: method as in earlier work. As to conditions: at 30 mg/mL; isolated from fruit extract of Flacourtia inermis Roxb; cited from earlier work.
In assay [12] the test system is Candida albicans, Microsporum gypseum, Trichophyton rubrum, and T. mentagrophytes. The assay can be described thus: MIC/MFC by micro-dilution, summary over yeast and filamentous fungi (abstract). The class given is cell-based. As to conditions: C. albicans, M. gypseum.
In assay [13] the test system is Rhizopus stolonifer and Botrytis. On the set-up: method as in doi:10.1016/S0925-5214(96)00031-2. The settings on record: at a dosage of 5 mM; cited from earlier work.
Assay [14] has as its system MRSA, S. epidermidis, Propionibacterium acnes, Escherichia coli, and Pseudomonas aeruginosa. The assay can be described thus: MIC/MBC by micro-dilution, summary over bacteria (abstract).
Assay [15] deals with B. aureus, L. monocytogenes, and E. coli. On the set-up: method as in doi:10.17221/132/2010-CJFS. As to conditions: cited from earlier work.

In brackets after ≈: the same amount, converted by molar mass. Like-named read-outs stand apart in the source and are kept apart here.

With `C[C@@H]1[C@H](O)[C@@H](C)/C=C/C=C/C=C/C=C/C=C/C=C/C=C/[C@H](O[C@@H]2O[C@H](C)[C@@H](O)[C@H](N)[C@@H]2O)C[C@@H]2O[C@](O)(C[C@@H](O)C[C@@H](O)[C@H](O)CC[C@@H](O)C[C@@H](O)CC(=O)O[C@H]1C)C[C@H](O)[C@H]2C(=O)O` [amphotericin B, reference compound], the “Antibiotic * (positive control value; MIC/MFC not specified)” value in assay [1] (C. albicans) is given as 0.5.
`O=c1c(-c2ccc(O)cc2)coc2cc(O)cc(O)c12` [compound 1, genistein]: the MFC (with Trichophyton rubrum; in [2]; against Microsporum gypseum; in assay [1]) was above 100 µg/mL each time. The MIC (in the assay on Trichophyton rubrum; in assay [2]; in [4] (Staphylococcus aureus); in [5]; in assay [6]; in [7]) was above 100 µg/mL in each case. The MIC (in the assay on Microsporum gypseum; in assay [1]; in [8]) was above 100 µg/mL each time. Also, the IC50 was 363 µM on tyrosinase [3] (ref 40) and 822 µM at tyrosinase [3] (ref 41). The minimum bactericidal concentration (MBC) in [4] (Staphylococcus aureus), in assay [5], in assay [6], in assay [7] and in [8] was above 100 µg/mL throughout.
For `CCCCCCCCCCCCCCCC(=O)O` [compound 2, hexadecanoic acid], the MFC (against Trichophyton rubrum; in assay [2]; against Microsporum gypseum; in assay [1]) was above 100 µg/mL in each case. For the same molecule, the MIC (in the assay with Trichophyton rubrum; in [2]; in assay [4] (Staphylococcus aureus); in assay [5]; in [6]; in assay [7]) was above 100 µg/mL in each case. Besides, the MIC (with Microsporum gypseum; in [1]; in assay [8]) was above 100 µg/mL each time. Further, the MBC in assay [4] (Staphylococcus aureus), in [5], in assay [6], in assay [7] and in assay [8] was above 100 µg/mL throughout.
`O=C(O)c1ccccc1O` [compound 3, salicylic acid]: in the assay with tyrosinase [9], the “type of inhibition (Lineweaver–Burk plots)” value is recorded as “non-competitive inhibitor”.
Consider `CC[C@H](CC[C@@H](C)[C@H]1CC[C@H]2[C@@H]3CC=C4C[C@@H](O[C@@H]5O[C@H](CO)[C@@H](O)[C@H](O)[C@H]5O)CC[C@]4(C)[C@H]3CC[C@]12C)C(C)C` [compound 4, β-sitosterol-D-glucoside], for which the MFC (in the assay with Trichophyton rubrum; in [2]; in the assay on Microsporum gypseum; in [1]) was above 100 µg/mL in each case. Also, the MIC (with Trichophyton rubrum; in assay [2]; in assay [4] (Staphylococcus aureus); in assay [5]; in assay [6]; in assay [7]) was above 100 µg/mL throughout. The MIC (in the assay with Microsporum gypseum; in [1]; in assay [8]) was above 100 µg/mL each time. In addition, the minimal bactericidal concentration (MBC) in [4] (Staphylococcus aureus), in [5], in [6], in assay [7] and in [8] was above 100 µg/mL throughout.
In the case of `O=C(O)c1cccc(O)c1O` [compound 5, 2,3-dihydroxybenzoic acid], the MFC was 10 µg/mL (≈ 64.9 µM) against Trichophyton rubrum, 10 µg/mL (≈ 64.9 µM) in assay [2], 10 µg/mL (≈ 64.9 µM) in the assay on Microsporum gypseum and 15 µg/mL (≈ 97.3 µM) in assay [1]. Besides, the MIC against Trichophyton rubrum amounted to 10 µg/mL (≈ 64.9 µM); in [2], 10 µg/mL (≈ 64.9 µM); in assay [4] (Staphylococcus aureus) it was 15 µg/mL (≈ 97.3 µM); in assay [5] it was 15 µg/mL (≈ 97.3 µM); in assay [6], 15 µg/mL (≈ 97.3 µM); in [7], 15 µg/mL (≈ 97.3 µM). In addition, the MIC was 10 µg/mL (≈ 64.9 µM) against Microsporum gypseum, 10 µg/mL (≈ 64.9 µM) in assay [1] and 15 µg/mL (≈ 97.3 µM) in assay [8]. Moreover, the growth of bacteria entry in [10] is “inhibited the growth”. The MBC in [4] (Staphylococcus aureus) came to 15 µg/mL (≈ 97.3 µM); in [5] it was 15 µg/mL (≈ 97.3 µM); in [6], 15 µg/mL (≈ 97.3 µM); in assay [7] it was 20 µg/mL (≈ 130 µM); in [8], 20 µg/mL (≈ 130 µM). In addition, the antifungal action result in assay [11] is “preventing the growth”.
With `O=C(O)c1cc(O)ccc1O` [compound 6, 2,5-dihydroxybenzoic acid], the MFC (in assay [12]; against Trichophyton rubrum; in [2]; in the assay with Microsporum gypseum; in assay [1]) was 15 µg/mL (≈ 97.3 µM) each time. Moreover, the minimum inhibitory concentration (MIC) in assay [12] turned out to be 15 µg/mL (≈ 97.3 µM); against Trichophyton rubrum, 15 µg/mL (≈ 97.3 µM); in assay [2], 15 µg/mL (≈ 97.3 µM); in assay [4] (S. aureus) it was 5 µg/mL (≈ 32.4 µM); in assay [4] (Staphylococcus aureus), 5 µg/mL (≈ 32.4 µM); in assay [5], 20 µg/mL (≈ 130 µM). The MIC is 15 µg/mL (≈ 97.3 µM) in assay [6]; 20 µg/mL (≈ 130 µM) in [7]; 15 µg/mL (≈ 97.3 µM) against Microsporum gypseum; 15 to 30 µg/mL (≈ 97.3 to 195 µM) in assay [14]; 2500 µM (≈ 385 µg/mL) in assay [15]; 15 µg/mL (≈ 97.3 µM) in assay [1]. In [8], this molecule yielded an MIC of 30 µg/mL (≈ 195 µM). Besides, in assay [13], the spore germination entry is given as “inhibited”. In addition, the MBC in assay [4] (S. aureus) was 5 µg/mL (≈ 32.4 µM); in assay [4] (Staphylococcus aureus), 5 µg/mL (≈ 32.4 µM); in [5], 35 µg/mL (≈ 227 µM); in assay [6], 15 µg/mL (≈ 97.3 µM); in assay [7] it was 35 µg/mL (≈ 227 µM); in [14], 15 to 40 µg/mL (≈ 97.3 to 260 µM). For the same molecule, the MBC in [8] was determined as 40 µg/mL (≈ 260 µM).
For `CC(=O)N1CCN(c2ccc(OCC3COC(Cn4ccnc4)(c4ccc(Cl)cc4Cl)O3)cc2)CC1` (centres unmarked) [ketoconazole, reference compound], the “Antibiotic * (positive control value; MIC/MFC not specified)” value (in the assay on Trichophyton rubrum (T. rubrum); in assay [2] (T. mentagrophytes); with Microsporum gypseum (M. gypseum)) was 0.25 each time.

In general, MIC refers to the least concentration at which growth counts as inhibited. The IC50 is the concentration that inhibits the measured activity by half. Usually MBC stands for the lowest tested concentration that kills the bacteria rather than only halting them. A higher MBC goes with less potent killing.

Values taken from PMC11595612, “Phytochemical Investigation and Biological Activities of Desmodium heterocarpon Extract as Anti-Tyrosinase: Isolation of Natural Compounds, In Vitro and In Silico Study” (Life, 2024).
